Test results as given in patent US12139458B2, “(2,5-dioxopyrrolidin-1-yl)(phenyl)-acetamide derivatives and their use in the treatment of neurological diseases” (UNIWERSYTET JAGIELLONSKI, priority 2019, dated 2024).

What was measured:
[1] = tested on: male Swiss albino mice (CD-1); experiment: Subcutaneous pentylenetetrazole seizure test (scPTZ); assay type: in vivo; details: 0.5 h, mice; for ED50 / responders at 100 mg/kg: Mus musculus, ip; for responders at 100 mg/kg / scPTZ: number of mice protected/number of mice tested: screening, 100 mg/kg i.p.; for responders at 100 mg/kg: read-out: scPTZ: number of mice protected/number of mice tested (converted)
Protocol: (§1) The male Swiss albino mice (CD-1) weighing 18-26 g were used. All procedures were carried out in accordance with applicable Polish and international guidelines on the ethics of animal testing, after obtaining appropriate institutional approval. The substances were administered intraperitoneally (i.p.), in 1% aqueous solution of Tween, as single injections with a volume of 10 ml/kg, 30 minutes before the given test. Screening was performed on groups consisted of 4 mice. The average effective dose (ED50) in given test and toxic dose in the rotarod test (TD50) was estimated based on the results obtained in 3-4 groups of animals consisting of 6 mice. All tests were carried out based on the procedures described in the specialist literature.
In the scPTZ test, seizures were induced by subcutaneous administration of pentylenetetrazole (PTZ) at a dose of 100 mg/kg. This caused clonic seizures with accompanying loss of the righting reflex. Test compounds were administered 30 minutes before the experiment. After PTZ administration, the animals were placed individually in transparent containers and observed for a period of 30 minutes for the occurrence of clonic seizures. During this time, the latency of the first onset of clonic seizures, defined as clonus of the whole body lasting at least 3 seconds with loss of the righting reflex and the number of seizure episodes during the test were noted and compared with control group. The absence of clonic convulsions within the observed time period was interpreted as the compound's ability to protect against PTZ-induced seizures (Ferreri, G.; Chimirri, A.; Russo, E.; Gitto, R.; Gareri, P.; De Sarro, A.; De Sarro, G. Pharmacol. Biochem. Behav. 2004, 77, 85-94; Łączkowski, K.; Sałat, K.; Misiura, K.; Podkowa, A.; Malikowska, N. J. Enzyme Inhib. Med. Chem. 2016, 31, 1576-82).
(§2) To perform a statistical evaluation of the results, one-way ANOVA variance analysis and Dunnett's post hoc test (multiple comparison test) were used. The value at the significance level p<0.05 was considered statistically significant.

[2] = tested on: male Swiss albino mice (CD-1); experiment: Maximal electroshock seizure test (MES); assay type: in vivo; details: 0.5 h, mice; for ED50 / responders at 100 mg/kg: Mus musculus, ip; for responders at 100 mg/kg / MES: number of mice protected/number of mice tested: screening, 100 mg/kg i.p.; for responders at 100 mg/kg: read-out: MES: number of mice protected/number of mice tested (converted)
Protocol: as §1
In the MES test, the seizures were induced by an electrical stimulus lasting of 0.2 s duration, 500 V voltage and 25 mA intensity. The electrical stimuli was generated using an electric shock generator (Rodent shocker, Type 221, Hugo Sachs Elektronik, Germany) and delivered to the animal using electrodes placed on the auricles. The study was conducted 30 minutes after intraperitoneal administration of the compounds at various doses. During the experiment, the number of animals that experienced a seizure episode in the form of tonic extension of the hind limbs was counted (Kamiński, K.; Rapacz, A.; Łuszczki, J. J.; Latacz, G.; Obniska, J.; Kieć-Kononowicz, K.; Filipek, B. Bioorg. Med. Chem. 2015, 23, 2548-2561; Castel-Branco, M. M.; Alves, G. L.; Figueiredo, I. V.; Falcão, A. C.; Caramona, M. M. Methods Find. Exp. Clin. Pharmacol. 2009, 31, 101-106).
as §2

[3] = tested on: male Swiss albino mice (CD-1); experiment: Psychomotor seizure test 6 Hz (32 mA); assay type: in vivo; details: 0.5 h, mice; for ED50 / responders at 100 mg/kg: Mus musculus, ip; for responders at 100 mg/kg / 6 Hz (32 mA): number of mice protected/number of mice tested: screening, 100 mg/kg i.p.; for responders at 100 mg/kg: read-out: 6 Hz (32 mA): number of mice protected/number of mice tested (converted)
Protocol: as §1
In the 6 Hz test, seizures were induced by an electric stimulus of 32 mA and/or 44 mA and a frequency of 6 pulses per second. An electrical pulse was generated using an electric shock generator (ECT Unit 57800; Ugo Basile, Gemonio, Italy) and delivered to the animal using ocular electrodes. Before starting the test, the eye surface was gently moistened with a solution of local anesthetic (1% lidocaine solution). The study was conducted 30 minutes after intraperitoneal administration of the compounds at various doses. An electrical pulse was delivered continuously for a period of 3 seconds, followed by observation of the animal for a period of 10 seconds. During this time, immobility or stun associated with rearing, forelimb clonus, twitching of the vibrissae and Straub's tail were observed. These symptoms persist throughout the observation period, indicating the occurrence of psychomotor seizures in mice. Mice resuming normal behavior within 10 s after stimulation were considered as protected (Barton, M. E.; Klein, B. D.; Wolf, H. H.; White, H. S. Epilepsy Res. 2001, 47, 217-227; Wojda, E.; Wlaź, A.; Patsalos, P. N.; Łuszczki, J. J. Epilepsy Res. 2009, 86, 163-174).
as §2

[4] = Rotarod test (motor coordination); assay type: in vivo; details: male, Swiss albino (CD-1), mouse, in vivo, ip, mice
Protocol: as §1, with “All” for “The male Swiss albino mice (CD-1) weighing 18-26 g were used. All”, “The average effective dose (ED50) in given test and toxic dose in the rotarod test (TD50) was estimated based on the results obtained in 3-4 groups of animals consisting of 6 mice.” left out
Mice were trained the day before the actual experiment. They were placed individually on a 2 cm diameter rod rotating at 10 revolutions per minute (rpm). During each training session, the animals remained on the rod for 3 minutes. The experiment was carried out 30 minutes after administration of the compounds. Motor coordination was tested at the speed of the rotating bar: 10 rpm during 60 seconds. Motor impairments were defined as the inability to remain on the rotating rod for 1 min.
as §2

[5] = tested on: male Swiss albino mice (CD-1); experiment: Psychomotor seizure test 6 Hz (44 mA); assay type: in vivo; details: 0.5 h, mice; for 6 Hz (44 mA): number of mice protected/number of mice tested: screening, 100 mg/kg i.p.
Protocol: as §1, with “All” for “The male Swiss albino mice (CD-1) weighing 18-26 g were used. All”, “The average effective dose (ED50) in given test and toxic dose in the rotarod test (TD50) was estimated based on the results obtained in 3-4 groups of animals consisting of 6 mice.” left out
In the 6 Hz test, seizures were induced by an electric stimulus of 32 mA and/or 44 mA and a frequency of 6 pulses per second. […] Before starting the test, the eye surface was gently moistened with a solution of local anesthetic (1% lidocaine solution). The study was conducted 30 minutes after intraperitoneal administration of the compounds at various doses. An electrical pulse was delivered continuously for a period of 3 seconds, followed by observation of the animal for a period of 10 seconds. During this time, immobility or stun associated with rearing, forelimb clonus, twitching of the vibrissae and Straub's tail were observed. These symptoms persist throughout the observation period, indicating the occurrence of psychomotor seizures in mice.
as §2

SMILES | ED50 [1] [mg/kg] | responders at 100 mg/kg [1] [%] | ED50 [2] [mg/kg] | responders at 100 mg/kg [2] [%] | ED50 [3] [mg/kg] | responders at 100 mg/kg [3] [%] | melting point [°C] | TD50 at 0.5 h [4] [mg/kg] | 6 Hz (44 mA): number of mice protected/number of mice tested [5] | ED50 ([5]; Mus musculus, ip) [mg/kg] | 6 Hz (32 mA): number of mice protected/number of mice tested [3] | scPTZ: number of mice protected/number of mice tested [1] | MES: number of mice protected/number of mice tested [2]
O=C(C(c1ccccc1)N1C(=O)CCC1=O)N1CCN(c2cccc(-c3ccccc3)c2)CC1 (racemic) [Compound 13, 1-(2-(4-([1,1′-Biphenyl]-3-yl)piperazin-1-yl)-2-oxo-1-phenylethyl)pyrrolidine-2,5-dione] | < 100 | 50 | 43.9 | 100 | 26.2 | 100 | 114.1 to 115.4 | 73.6 | 4/4 |  |  |  | 
O=C(C(c1ccccc1)N1C(=O)CCC1=O)N1CCN(c2cccc(OC(F)(F)F)c2)CC1 (racemic) [Compound 10, 1-(2-Oxo-1-phenyl-2-(4-(3-(trifluoromethoxy)phenyl)piperazin-1-yl)ethyl)pyrrolidine-2,5-dione] | < 60 | 50 | 41.7 | 100 | 38.3 | 100 | 100.3 to 101.6 | 74 | ¾ |  |  |  | 
O=C(C(c1ccccc1)N1C(=O)CCC1=O)N1CCN(c2cccc(C(F)F)c2)CC1 (racemic) [Compound 9, 1-(2-Oxo-1-phenyl-2-(4-(3-(difluoromethyl)phenyl)piperazin-1-yl)ethyl)pyrrolidine-2,5-dione] | 94.3 |  | 97.7 |  | 63 |  | 156.4 to 157.6 | 274 |  | 196 |  |  | 
O=C(C(c1ccc(F)cc1)N1C(=O)CCC1=O)N1CCN(c2cccc(C(F)(F)F)c2)CC1 (racemic) [Compound 14, 1-(1-(4-Fluorophenyl)-2-oxo-2-(4-(3-(trifluoromethyl)phenyl)piperazin-1-yl)ethyl)pyrrolidine-2,5-dione] | < 100 | 50 | 56.4 | 100 | 48.3 |  | 88.8 to 90.7 | > 300 |  |  | ¾ |  | 
O=C(C(c1ccccc1)N1C(=O)CCC1=O)N1CCN(c2cccc(Cl)c2)CC1 (racemic) [Compound 3, 1-(2-(4-(3-Chlorophenyl)piperazin-1-yl)-2-oxo-1-phenylethyl)pyrrolidine-2,5-dione] | 52.6 |  | 36.9 | 100 | 39.5 | 100 | 128.1 to 129 | 144 | ¾ |  |  | ¾ | 
O=C(C(c1ccccc1)N1C(=O)CCC1=O)N1CCN(c2ccccc2)CC1 (racemic) [Compound 2, 1-(2-Oxo-1-phenyl-2-(4-phenylpiperazin-1-yl)ethyl)pyrrolidine-2,5-dione] | 100 |  | 91.1 | 100 | 83.5 |  | 156.7 to 157.4 | > 300 | 2/4 |  | ¾ | ¾ | 
O=C([C@H](c1ccccc1)N1C(=O)CCC1=O)N1CCN(c2cccc(C(F)(F)F)c2)CC1 [(S)-6, (S)-1-(2-Oxo-1-phenyl-2-(4-(3-(trifluoromethyl)phenyl)piperazin-1-yl)ethyl) pyrrolidine-2,5-dione] | 75.4 |  | 68.5 |  | > 130 | 50 |  | > 300 | ¼ |  |  | ¾ | ¾
O=C([C@@H](c1ccccc1)N1C(=O)CCC1=O)N1CCN(c2cccc(OC(F)(F)F)c2)CC1 [(R)-10, (R)-1-(2-Oxo-1-phenyl-2-(4-(3-(trifluoromethoxy)phenyl)piperazin-1-yl)ethyl)pyrrolidine-2,5-dione] | < 60 | 50 | 22.6 | 100 | 12.8 | 100 | 168.2 to 169.1 | > 150 |  |  |  |  | 
Cc1cccc(N2CCN(C(=O)C(c3ccccc3)N3C(=O)CCC3=O)CC2)c1 (racemic) [Compound 5, 1-(2-Oxo-1-phenyl-2-(4-(m-tolyl)piperazin-1-yl)ethyl)pyrrolidine-2,5-dione] | 57.6 |  | 37.2 |  | 35.5 | 100 | 188.7 to 192.1 | 171 | 2/4 |  |  | ¾ | ¾
O=C([C@@H](c1ccccc1)N1C(=O)CCC1=O)N1CCN(c2cccc(Cl)c2)CC1 [(R)-3, (R)-1-(2-(4-(3-chlorophenyl)piperazin-1-yl)-2-oxo-1-phenylethyl)pyrrolidine-2,5-dione] | 78.3 |  | 57.7 | 100 | 49.3 | 100 | 167.3 to 168.1 | 223 |  |  |  | ¾ | 
O=C(C(c1ccccc1)N1C(=O)CCC1=O)N1CCN(c2cc(Cl)cc(Cl)c2)CC1 (racemic) [Compound 4, 1-(2-(4-(3,5-Dichlorophenyl)piperazin-1-yl)-2-oxo-1-phenylethyl)pyrrolidine-2,5-dione] | > 100 |  | 68.5 |  | 17.7 | 100 | 163.8 to 165.2 | > 300 |  |  |  | ¾ | ¾
